One may read the IC50 as the point on the concentration scale where inhibition reaches its midpoint. Read a high IC50 as a need for much substance.

Our source for the IC50 values is ChEMBL document CHEMBL4190196, “Kohamamides A, B, and C, Cyclic Depsipeptides from an Okeania sp. Marine Cyanobacterium” (J Nat Prod, 2017).

One experiment has as its system HeLa. Description: Growth inhibition of human HeLa cells after 72 hrs by MTT assay. In kind it is functional, cell-based. A general note: Tetrazolium assays rely on reduction of a dye to a coloured formazan, in cell work by metabolically active cells.
Another experiment concerns HL-60. Nature of the experiment: Growth inhibition of human HL60 cells after 72 hrs by MTT assay. In kind it is functional, cell-based. The settings on record: HL-60, 72 h.

*1 amine or outer side, *2 acyl side, *3 side chain or, on linkers, in order; H or OH if unused. Where a SMILES comes first, the peptide text is derived from it. Bridges are numbered along the chain shown (N, C = ends). [ ]: non-standard residue; d: D form. X1 = C#CCCC[C@H](O[*:2])C(C)(C)C(=O)[*:1]; X2 = C=CCCC[C@H](O[*:2])C(C)(C)C(=O)[*:1]; X3 = CCCCC[C@H](O[*:2])C(C)(C)C(=O)[*:1]; Hmpa(2S,3S) = CC[C@H](C)[C@H](O)C(=O)O; NMeV = CN[C@H](C(=O)O)C(C)C

As for `C#CCCC[C@@H]1OC(=O)[C@H](C)NC(=O)[C@H](CC(C)C)NC(=O)[C@@H]2CCCN2C(=O)[C@H]([C@@H](C)CC)OC(=O)[C@H](C(C)C)N(C)C(=O)[C@H](C(C)C)NC(=O)C1(C)C` (V[NMeV][Hmpa(2S,3S)]PLA; linker N-C via X1), the values for the IC50 in the experiment with HeLa and with HL-60 were 29 µM and 19 µM, respectively.

For `CCCCC[C@@H]1OC(=O)[C@H](C)NC(=O)[C@H](CC(C)C)NC(=O)[C@@H]2CCCN2C(=O)[C@H]([C@@H](C)CC)OC(=O)[C@H](C(C)C)N(C)C(=O)[C@H](C(C)C)NC(=O)C1(C)C` (V[NMeV][Hmpa(2S,3S)]PLA; linker N-C via X3), the IC50 was 18 µM in the experiment on HeLa and 11 µM in the experiment with HL-60.

In the case of `C=CCCC[C@@H]1OC(=O)[C@H](C)NC(=O)[C@H](CC(C)C)NC(=O)[C@@H]2CCCN2C(=O)[C@H]([C@@H](C)CC)OC(=O)[C@H](C(C)C)N(C)C(=O)[C@H](C(C)C)NC(=O)C1(C)C` (V[NMeV][Hmpa(2S,3S)]PLA; linker N-C via X2), the IC50 turned out to be 23 µM in the experiment on HeLa and 6 µM in the experiment on HL-60.
